Reference: patent publication US8932597B2 (priority 2008, dated 2015)

Experiments:
HuM2e antibody 23K12 = type: binding, human
[1] = test system: anti-M2 human monoclonal antibody Z3G1; type: binding

Substance	Signal (peptides that bind to 23K21 and 8I10) (HuM2e antibody 23K12)	Signal (peptides that bind to Z3G1) [1]	Signal (peptides that show specific binding to Z3G1) [1]
288 (CSCLCEVGMSLLTEV; epitope peptide) [compound 288]	2154	1812	–
289 (MSLCTEVGMSLCTEV; epitope peptide) [compound 289]	2153	1093	–
290 (CSLLTEVGSLLTCV; epitope peptide) [compound 290]	2142	–	2503
291 (MSLLTEVGMCLCTCV; epitope peptide) [compound 291]	2110	2842	–
292 (CSLLTEVGSLLTEC; epitope peptide) [compound 292]	2094	–	2213
293 (CSLLTEVGMSLLTEV; epitope peptide) [compound 293]	2039	2827	–
294 (MSCLCECGMSLLTEV; epitope peptide) [compound 294]	2039	1006	–
296 (MSLLTEVGMCLLTEV; epitope peptide) [compound 296]	2023	2809	–
297 (CSLLTEVGMCLCTCV; epitope peptide) [compound 297]	1972	2649	–
299 (SLLTEVGCLCTCV; epitope peptide) [compound 299]	1963	–	2346
300 (SLLTEVETKIRNEWGCRCNDSSD; epitope peptide) [compound 300]	1960	–	2485
301 (SLLCEVGCSLLTEC; epitope sequence) [compound 301]	1959	–	2637
302 (ASLLTEVGSCLTEV; epitope sequence) [compound 302]	1944	–	2770
303 (CSLLTEVGMCLLTEV; epitope sequence) [compound 303]	1941	2618	–
304 (MSLCTEVGMSLLCEV; epitope peptide) [compound 304]	1935	2616	–
309 (CSLLTEVGMSLLCEV; epitope peptide) [compound 309]	1891	2734	–
311 (SLLTEVGCLLTEV; epitope peptide) [compound 311]	1859	–	1924
312 (TLLTEVETPIRNEWGCRCNDSSD; epitope peptide) [compound 312]	1855	–	2510
314 (SLLTEVGSLLCEV; epitope peptide) [compound 314]	1834	–	2392
316 (MSLLTEVGCSLLTEV; epitope peptide) [compound 316]	1809	2650	–
317 (MSLLTEVGMSLCTEV; epitope peptide) [compound 317]	1804	2895	–
318 (SLLTEVETPIRNEWGCRCKDSSD; epitope peptide) [compound 318]	1802	2549	–
320 (SLLTEVGSLLTEV; epitope peptide) [compound 320]	1794	–	2530
321 (ALLTEVETPIRNEWGCRCNDSSD; epitope peptide) [compound 321]	1794	–	2225
324 (SLCTEVGSLLTEV; epitope peptide) [compound 324]	1772	–	1780
326 (SLLTEVETPIRNEWGCRCNDSSD; epitope peptide) [compound 326]	1749	–	2476

Substance	Signal (peptides that bind to 23K21 and 8I10) (HuM2e antibody 23K12)	Signal (peptides that bind to Z3G1) [1]	Signal (peptides that show specific binding to Z3G1) [1]
327 (SLMTEVETPIRNEWGCRCNDSSD; epitope peptide) [compound 327]	1729	–	2149
328 (SLETEVETPIRNEWGCRCNDSSD; epitope peptide) [compound 328]	1720	–	1963
329 (SLLTEVGSCLCEC; epitope peptide) [compound 329]	1708	–	2558
330 (SLLTEVETPIRNEWGCRCNDYSD; epitope peptide) [compound 330]	1694	2445	–
334 (CSLLTEVGMSLCTEV; epitope peptide) [compound 334]	1682	2857	–
336 (SLLCEVGSLLTEV; epitope peptide) [compound 336]	1674	–	2475
337 (SLLTEVETPIRNEWGCRCNYSSD; epitope peptide) [compound 337]	1666	2475	–
339 (MSLLTECGMSLLTEV; epitope peptide) [compound 339]	1658	2170	–
341 (CSLLTEVCSLLTEC; epitope peptide) [compound 341]	1644	–	1122
342 (SLLTEVETPIRNEWGCRCNSSSD; epitope peptide) [compound 342]	1637	2440	–
343 (MSLLTEVGMSLLTEC; epitope peptide) [compound 343]	1630	2831	–
345 (CSLLTEVGSCLTEV; epitope peptide) [compound 345]	1616	–	2703
346 (SLLMEVETPIRNEWGCRCNDSSD; epitope peptide) [compound 346]	1616	–	2477
349 (SLATEVETPIRNEWGCRCNDSSD; epitope peptide) [compound 349]	1583	–	2145
351 (SLLCEVGSLLTEC; epitope peptide) [compound 351]	1564	–	2438
352 (SLQTEVETPIRNEWGCRCNDSSD; epitope peptide) [compound 352]	1561	–	2025
353 (SLLTEVGCSLLTEC; epitope peptide) [compound 353]	1556	–	2380
354 (SLLTEVGCSLLTEV; epitope peptide) [compound 354]	1555	–	2511
356 (SLLTEVETPIRNEWGCRCNDSDD; epitope peptide) [compound 356]	1553	2181	–
357 (SLLTEVETPIPNEWGCRCNDSSD; epitope peptide) [compound 357]	1548	–	2515
359 (MSLLTEVGMSCLTEV; epitope peptide) [compound 359]	1535	2793	–
360 (CSLLTECGCSLLTEV; epitope peptide) [compound 360]	1534	1427	–
363 (MSLLTECGCSLLTEV; epitope peptide) [compound 363]	1500	1235	–
364 (CSLLTEVGCSLLTEV; epitope peptide) [compound 364]	1499	2503	–
365 (CSLLTEVCMSLLTEC; epitope peptide) [compound 365]	1498	1891	–
